# According to patent US8247211B2, “Glycopeptide antibiotics” (American Cyanamid Company, priority 2001, dated 2012):
# Key:
# [1] = tested on: Staphylococcus aureus-SMITH (GC 4543); assay: Acute lethal infection in mice (ED50); assay type: in vivo; details: female CD-1 mice, intraperitoneal challenge, intravenous dose 30 min. after infection, 7 day survival ratios
# Summary of the method: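 Bacteria suspended in Trypticase Soy Broth or hog gastric mucin are injected intraperitoneally into female CD-1 mice at a dose killing untreated animals within 24-48 hr. Thirty minutes later, test agent is administered intravenously. Survival at day 7 is scored.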
# Escherichia coli = assay: In vitro antibacterial evaluation: minimum inhibitory concentration (MIC), broth dilution method; assay type: cell-based
# Summary of the method: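 Broth dilution per NCCLS M7-A2 in Muller-Hinton II […], inoculum 5×10^5 CFU/mL, antibiotic tested over 64-0.06 μg/mL. MIC is taken as the lowest concentration that inhibits growth. Panel includes recent clinical isolates resistant to methicillin, penicillin and/or vancomycin.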
# Streptococcus sp. = assay: as above; assay type: cell-based
# Summary of the method: (§1)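 Test strains, among them recent clinical isolates carrying methicillin, penicillin and/or vancomycin resistance, were inoculated at 5×10^5 CFU/mL. A broth dilution series spanning 64-0.06 μg/mL in Muller-Hinton II […] (NCCLS M7-A2) defined the MIC as the lowest growth-inhibiting concentration.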
# Staphylococcus sp. = assay: as above; assay type: cell-based; details: broth dilution, 18 hours at 35° C.
# Summary of the method: as §1
# Enterococcus sp. = assay: as above; assay type: cell-based
# Summary of the method: as §1
# [2] = Anatomic pathology (heart and kidney histopathology) in mice; assay type: in vivo, CD-1 mice; details: 20 mg/kg intravenously daily for 9 days, microscopic histopathology on day 10
# Summary of the method: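 Histopathology on H&E-stained, paraffin-embedded sections, subjectively scored (slight, mild, moderate, marked, severe) relative to untreated controls. Dosing: glycopeptide antibiotics 20 mg/kg intravenously once daily ×9 days in 20-day-old CD-1 mice, n=5 per group including vehicle.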
smiles,measurement,setting,value
"CC(c1ccccc1)C1NC(=O)CNC(=O)C(CO)NC(=O)C(C(O)C2CNC(=N)N2C2OC(CO)C(O)C(O)C2O)NC(=O)C(C(O)C2CNC(=N)N2)NC(=O)C(Cc2ccc(OC3OC(CO)C(OC4OC5COC(c6ccc(C(=O)O)cc6)OC5C(O)C4O)C(O)C3O)cc2)NC1=O (stereo not drawn) [Example 141, Cyclo[glycyl-β-methylphenylalanyl-O-[4-O-[4,6-O-(4-carboxybenzylidene)hexopyranosyl]-hexopyranosyl]tyrosyl-3-(2-iminoimidazolidin-4-yl)seryl-3-(3-hexopyranosyl-2-iminoimidazolidin-4-yl)serylseryl]]","median effective dose (ED50), Staphylococcus aureus-SMITH (GC 4543)",[1],>8
same,MIC Escherichia coli (ATCC 25922),Escherichia coli; strain ATCC 25922,>64 µg/mL
same,MIC Escherichia coli (GC 4559),Escherichia coli; strain GC 4559,>64 µg/mL
same,MIC Escherichi coli (GC 4560),Escherichia coli; strain GC 4560,>64 µg/mL
same,MIC Streptococcus pneumoniae (ATCC 6301),Streptococcus sp.; strain ATCC 6301,>64 µg/mL
same,MIC Streptococcus pneumoniae (GC 1894),Streptococcus sp.; strain GC 1894,>64 µg/mL
same,MIC Streptococcus pyogenes (GC 4563),Streptococcus sp.; strain GC 4563,>64 µg/mL
same,MIC Streptococcus agalactiae (GC 4564),Streptococcus sp.; strain GC 4564,>64 µg/mL
same,MIC Streptococcus pneumoniae (GC 4565),Streptococcus sp.; strain GC 4565,>64 µg/mL
same,MIC Coagulase Negative Staphylococcus (GC 4547),Staphylococcus sp.; 5×10^5 CFU/mL,>64 µg/mL
same,MIC Coagulase Negative Staphylococcus (GC 4548),Staphylococcus sp.; 5×10^5 CFU/mL,>64 µg/mL
same,MIC Coagulase Negative Staphylococcus (GC 4549),Staphylococcus sp.; 5×10^5 CFU/mL,>64 µg/mL
same,MIC Coagulase Negative Staphylococcus (GC 4551),Staphylococcus sp.; 5×10^5 CFU/mL,>64 µg/mL
same,MIC Coagulase Negative Staphylococcus (GC 6257),Staphylococcus sp.; 5×10^5 CFU/mL,>64 µg/mL
same,MIC Staphylococcus aureus (ATCC 29213),Staphylococcus sp.; 5×10^5 CFU/mL,>64 µg/mL
same,MIC Staphylococcus aureus (GC 1131),Staphylococcus sp.; 5×10^5 CFU/mL,>64 µg/mL
same,MIC Staphylococcus aureus (GC 3051),Staphylococcus sp.; 5×10^5 CFU/mL,>64 µg/mL
same,MIC Staphylococcus aureus (GC 3053),Staphylococcus sp.; 5×10^5 CFU/mL,>64 µg/mL
same,MIC Staphylococcus aureus (GC 4541),Staphylococcus sp.; 5×10^5 CFU/mL,>64 µg/mL
same,MIC Staphylococcus aureus (GC 4542),Staphylococcus sp.; 5×10^5 CFU/mL,>64 µg/mL
same,MIC Staphylococcus aureus (GC 4544),Staphylococcus sp.; 5×10^5 CFU/mL,>64 µg/mL
same,MIC Staphylococcus aureus (GC 4545),Staphylococcus sp.; 5×10^5 CFU/mL,>64 µg/mL
same,MIC Staphylococcus aureus-SMITH (GC 4543),Staphylococcus sp.; 5×10^5 CFU/mL,>64 µg/mL
same,MIC Staphylococcus haemolyticus (GC 4546),Staphylococcus sp.; 5×10^5 CFU/mL,>64 µg/mL
same,MIC Staphylococcus aureus (ATCC 29213),Staphylococcus sp.; strain ATCC 29213,>64 µg/mL
same,MIC Staphylococcus aureus (GC 1131),Staphylococcus sp.; strain GC 1131,>64 µg/mL
same,MIC Staphylococcus aureus (GC 3051),Staphylococcus sp.; strain GC 3051,>64 µg/mL
same,MIC Staphylococcus aureus (GC 3053),Staphylococcus sp.; strain GC 3053,>64 µg/mL
same,MIC Staphylococcus aureus (GC 4541),Staphylococcus sp.; strain GC 4541,>64 µg/mL
same,MIC Staphylococcus aureus (GC 4542),Staphylococcus sp.; strain GC 4542,>64 µg/mL
same,MIC Staphylococcus aureus-SMITH (GC 4543),Staphylococcus sp.; strain GC 4543,>64 µg/mL
same,MIC Staphylococcus aureus (GC 4544),Staphylococcus sp.; strain GC 4544,>64 µg/mL
same,MIC Staphylococcus aureus (GC 4545),Staphylococcus sp.; strain GC 4545,>64 µg/mL
same,MIC Staphylococcus haemolyticus (GC 4546),Staphylococcus sp.; strain GC 4546,>64 µg/mL
same,MIC Coagulase Negative Staphylococcus (GC 4547),Staphylococcus sp.; strain GC 4547,>64 µg/mL
same,MIC Coagulase Negative Staphylococcus (GC 4548),Staphylococcus sp.; strain GC 4548,>64 µg/mL
same,MIC Coagulase Negative Staphylococcus (GC 4549),Staphylococcus sp.; strain GC 4549,>64 µg/mL
same,MIC Coagulase Negative Staphylococcus (GC 4551),Staphylococcus sp.; strain GC 4551,>64 µg/mL
same,MIC Coagulase Negative Staphylococcus (GC 6257),Staphylococcus sp.; strain GC 6257,>64 µg/mL
same,MIC Enterococcus faecalis (ATCC 29212),Enterococcus sp.; strain ATCC 29212,>64 µg/mL
same,MIC Enterococcus faecalis (GC 2242),Enterococcus sp.; strain GC 2242,>64 µg/mL
same,MIC Enterococcus faecium (GC 2243),Enterococcus sp.; strain GC 2243,>64 µg/mL
same,MIC Enterococcus faecalis (GC 2691),Enterococcus sp.; strain GC 2691,>64 µg/mL
same,MIC Enterococcus faecalis (GC 3059),Enterococcus sp.; strain GC 3059,>64 µg/mL
same,MIC Enterococcus faecalis (GC 4552),Enterococcus sp.; strain GC 4552,>64 µg/mL
same,MIC Enterococcus faecalis (GC 4553),Enterococcus sp.; strain GC 4553,>64 µg/mL
same,MIC Enterococcus faecalis (GC 4554),Enterococcus sp.; strain GC 4554,>64 µg/mL
same,MIC Enterococcus faecium (GC 4556),Enterococcus sp.; strain GC 4556,>64 µg/mL
same,MIC Enterococcus faecium (GC 4557),Enterococcus sp.; strain GC 4557,64 µg/mL
same,MIC Enterococcus avium (GC 4558),Enterococcus sp.; strain GC 4558,>64 µg/mL
same,MIC Enterococcus faecalis (GC 6189),Enterococcus sp.; strain GC 6189,>64 µg/mL
same,"Anatomical Pathology (Day 10), Heart",[2],0
same,"Anatomical Pathology (Day 10), Kidney",[2],+++
